Laboratory results from paper PMC12141336, “A dual inhibitor of TrxR1 and XIAP induces pyroptosis in melanoma” (Frontiers in Cell and Developmental Biology, 2025).

Columns and labels:
[1] = target: T1, TrxR1 (thioredoxin reductase 1) (Rattus norvegicus, UniProt O89049); test: fluorescence quenching (Stern-Volmer) with GST as control; also DTNB assay on recombinant TrxR1, IC50 […]; type: binding
T1 construct: gene Txnrd1
T1 sequence (O89049 1-499): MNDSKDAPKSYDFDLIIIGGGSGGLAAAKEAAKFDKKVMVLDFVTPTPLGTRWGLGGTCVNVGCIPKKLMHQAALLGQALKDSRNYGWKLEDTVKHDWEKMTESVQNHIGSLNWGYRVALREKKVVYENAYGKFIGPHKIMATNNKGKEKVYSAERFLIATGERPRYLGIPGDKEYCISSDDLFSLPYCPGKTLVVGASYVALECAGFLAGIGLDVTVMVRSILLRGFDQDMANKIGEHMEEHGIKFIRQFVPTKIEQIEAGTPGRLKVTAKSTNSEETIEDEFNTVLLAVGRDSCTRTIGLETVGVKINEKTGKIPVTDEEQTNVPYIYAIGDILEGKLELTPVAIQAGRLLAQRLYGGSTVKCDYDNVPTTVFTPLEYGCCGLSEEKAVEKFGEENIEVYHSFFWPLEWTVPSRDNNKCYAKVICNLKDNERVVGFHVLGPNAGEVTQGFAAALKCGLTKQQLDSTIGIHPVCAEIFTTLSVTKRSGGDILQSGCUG

[2] = target: T1, TrxR1 (thioredoxin reductase 1); test: DTNB assay on purified recombinant TrxR1, […] h incubation

SMILES | Kd [1] [nM] | IC50 [2] [nM]
CC(=O)CC#[C][Au][P](c1ccccc1)(c1ccccc1)C1CCCCC1 [TRI-03] | 310 ± 50 | –
CC[P](CC)(CC)=[Au][S][C@@H]1O[C@H](COC(C)=O)[C@@H](OC(C)=O)[C@H](OC(C)=O)[C@H]1OC(C)=O [auranofin] | – | 1470 ± 30
